According to patent US20150366827A1, “COMPOSITIONS AND METHODS FOR MIXING AND APPLYING MIXED OXIDANT COMPOSITIONS FOR DAIRY ANIMAL TREATMENT” (GEA Farm Technologies, Inc., priority 2009, published 2015):
Values belong to the molecule of their own block, whether it stands above or below them.

Tests used:
[1] = Loss of mixed oxidant activity on exposure to additives (iodometric thiosulfate titration); type: physicochemical; parameters: % Loss of mixed oxidant activity at (23° C.) / % Loss of Activity at (23° C.): concentration or dose not given beside the values; conditions: for % Loss of mixed oxidant activity after 24 hours at (23° C.) exposure to mixed oxidant: emollients, beginning mixed oxidant 3800-4100 ppm as available chlorine
Experimental: The activity of a mixed oxidant system is preferably measured with an iodometric titration by the addition of excess iodide and acid and titration of the resulting iodine (in the form of triiodide) with sodium thiosulfate. This method can measure the various oxidants in the mixture, comprising chlorine.
(§1) A teat dip composition is defined as stable when the activity of the mixed oxidant decreases by less than about 25% over a 12 hour to 72 hour period. The Tables 1 through 3, and 5 below show the stability of mixed oxidants when exposed to various additives for 12 hours to 96 hours. […] In each Table 1 through 5, the beginning mixed oxidant titrated at between 3800 ppm to 4100 ppm measured as available chlorine.

[2] = Loss of color of colorants exposed to mixed oxidant, judged on teat; type: physicochemical, dairy animal
Experimental: as §1
Colorants are added to teat dips to provide a visual indicator that a teat dip was applied to a diary animal teat.
Preferably, a stable colorant is added to the teat sanitizer composition, but the colorant must be visible on the teat at the Ready-to-Use concentration. Some colorants are unacceptable because they are stable in their color in solution, but they are not visible on the teat after an exposure to the mixed oxidant for a period of time.

[3] = chelators, 0.1 days exposure to mixed oxidant, 23° C.

Molecule: CCCCCCCCCCCCc1ccc(S(=O)(=O)O)cc1 [DDBSA, dodecylbenzenesulfonic acid]
% Loss of Activity at (23° C.) ([1]; antimicrobials, 2 days exposure to mixed oxidant, 23° C.): 6%

Molecule: CC(C)CCCCCCCCCCCCCCCOC(=O)CCCCC(=O)OCCCCCCCCCCCCCCCC(C)C [Diisostearyl Adipate]
% Loss of mixed oxidant activity after 24 hours at (23° C.) exposure to mixed oxidant ([1]; 23° C.): 13%

Molecule: CCN(Cc1cccc(S(=O)(=O)[O-])c1)c1ccc(C(=C2C=CC(=[N+](CC)Cc3cccc(S(=O)(=O)[O-])c3)C=C2)c2ccccc2S(=O)(=O)[O-])cc1.[Na+].[Na+] [FD&C Blue 1]
Color intensity on teat after 1 day exposure to 4000 ppm mixed oxidant [2]: Clear

Molecule: COc1cc(S(=O)(=O)[O-])c(C)cc1N=Nc1c(O)ccc2cc(S(=O)(=O)[O-])ccc12.[Na+].[Na+] [FD&C Red #40]
Color intensity on teat after 1 day exposure to 4000 ppm mixed oxidant [2]: Clear

Molecule: OCC(O)CO [Glycerin]
% Loss of mixed oxidant activity after 24 hours at (23° C.) exposure to mixed oxidant ([1]; 23° C.): 97%

Molecule: CC(C)CCCCCCCCCCCCCCC(=O)OC(C)C [Isopropyl Isostearate]
% Loss of mixed oxidant activity after 24 hours at (23° C.) exposure to mixed oxidant ([1]; 23° C.): 11%

Molecule: CN(C)c1ccc2nc3ccc(=[N+](C)C)cc-3sc2c1 [Methylene Blue]
Color intensity on teat after 1 day exposure to 4000 ppm mixed oxidant [2]: Clear

Molecule: O=C([O-])[C@H](O)[C@@H](O)[C@H](O)[C@H](O)CO.[Na+] [Sodium Gluconate]
% Loss of mixed oxidant activity at (23° C.) [1, 3]: 90%

Molecule: Cocamido propyl betaine
% Loss of mixed oxidant activity at (23° C.) ([1]; surfactants, 1 day exposure to mixed oxidant, 23° C.): 56%

Molecule: EDTA 100
% Loss of mixed oxidant activity at (23° C.) [1, 3]: 94%

Molecule: Nonylphenol ethoxylate
% Loss of mixed oxidant activity at (23° C.) ([1]; surfactants, 2 days exposure to mixed oxidant, 23° C.): 55%

The next lines start with the values.

Stability of chelator with mixed oxidant (in words) ([1]; chelators compatible with mixed oxidant): stable
% Loss of mixed oxidant activity at (23° C.) ([1]; chelators, 2 days exposure to mixed oxidant, 23° C.): 3.5%
Molecule: O=P(O)(O)OP(=O)(O)OP(=O)(O)O [Na, sodium Tripolyphosphate]

% Loss of mixed oxidant activity after 24 hours at (23° C.) exposure to mixed oxidant ([1]; 23° C.): 11%
Molecule: CCCCCCCCCCCCCCCCCC(=O)OCCCCCCCC [Octyl stearate]

% Loss of mixed oxidant activity after 24 hours at (23° C.) exposure to mixed oxidant ([1]; 23° C.): 71%
% Loss of mixed oxidant activity after 24 hours at (23° C.) exposure to mixed oxidant ([1]; 23° C., listed as Propylene Glycol): 7%
Molecule: CC(O)CO (stereo not drawn) [Propylene glycol]

% Loss of mixed oxidant activity after 24 hours at (23° C.) exposure to mixed oxidant ([1]; 23° C.): 78%
Molecule: OC[C@@H](O)[C@@H](O)[C@H](O)[C@@H](O)CO [Sorbitol]

Color intensity on teat after 1 day exposure to 4000 ppm mixed oxidant [2]: Clear
Visibility of the dye once applied to a dairy animal teat ([2]; after exposure to mixed oxidant): unacceptable
Color in the composition after exposure to the mixed oxidant ([2]; in solution, after exposure to mixed oxidant): still has some color
Molecule: O=C([O-])C1=NN(c2ccc(S(=O)(=O)[O-])cc2)C(=O)C1N=Nc1ccc(S(=O)(=O)[O-])cc1.[Na+].[Na+].[Na+] (stereo not drawn) [Yellow #5]

Color intensity on teat after 1 day exposure to 4000 ppm mixed oxidant [2]: Clear
Molecule: O=S(=O)([O-])c1ccc(N=Nc2c(O)ccc3cc(S(=O)(=O)[O-])ccc23)cc1.[Na+].[Na+] [Yellow #6]
